Assays:
Conditions in all cases: 72 h
[1] = test system: Caco-2; test: relative viability EC50 (midpoint between 100% and the lowest measured viability); higher = less toxic
[2] = test system: U2OS; test: as above
[3] = test system: Caco-2; test: drug sensitivity score (DSS) for viability; higher = more toxic; extreme values may be limits of the assay
[4] = test system: U2OS; test: as above
[5] = test system: Caco-2; test: cell viability relative to DMSO; higher = less toxic
[6] = test system: U2OS; test: as above
[7] = test system: HepG2; test: drug sensitivity score (DSS) for viability; higher = more toxic; extreme values may be limits of the assay
[8] = test system: Vero E6; test: as above
[9] = test system: Vero E6; test: relative viability EC50 (midpoint between 100% and the lowest measured viability); higher = less toxic
[10] = test system: Calu-3; test: drug sensitivity score (DSS) for viability; higher = more toxic; extreme values may be limits of the assay
[11] = test system: HepG2; test: cell viability relative to DMSO; higher = less toxic
[12] = test system: Vero E6; test: as above
[13] = test system: Calu-3; test: as above
[14] = test system: HepG2; test: relative viability EC50 (midpoint between 100% and the lowest measured viability); higher = less toxic

Compound: Cc1ccc(-c2c(-c3nn(C)c4ncnc(N5CC[C@H](N6CCCCC6)C5)c34)cnn2C)cc1
- relative viability EC50 [1]: > 10 µM
- relative viability EC50 [2]: > 10 µM
- drug sensitivity score [3]: 0
- drug sensitivity score [4]: 0
- cell viability ([5]; 1 nM): 106%
- cell viability ([5]; 10 nM): 102%
- cell viability ([5]; 100 nM): 106%
- cell viability ([5]; 1000 nM): 96.1%
- cell viability ([5]; 10000 nM): 100%
- cell viability ([6]; 1 nM): 104%
- cell viability ([6]; 10 nM): 99.5%
- cell viability ([6]; 100 nM): 99%
- cell viability ([6]; 1000 nM): 98.9%
- cell viability ([6]; 10000 nM): 100%

Compound: CCN1C(=O)NC(c2ccccc2)C1=O (stereo not drawn) [ethotoin]
- drug sensitivity score [7]: 0
- drug sensitivity score [8]: 0
- drug sensitivity score [4]: 0

Compound: C/C(=N\NC(=N)N)c1cc(NC(=O)CCCCCCCCC(=O)Nc2cc(/C(C)=N/NC(=N)N)cc(/C(C)=N/NC(=N)N)c2)cc(/C(C)=N/NC(=N)N)c1 [semapimod]
- relative viability EC50 [9]: > 10 µM
- drug sensitivity score [7]: 3
- drug sensitivity score [8]: 1.2
- drug sensitivity score [3]: 2.5
- drug sensitivity score [4]: 1.3
- drug sensitivity score [10]: 3.3
- cell viability ([11]; 1 nM): 91.9%
- cell viability ([11]; 10 nM): 99.6%
- cell viability ([11]; 100 nM): 104%
- cell viability ([11]; 1000 nM): 90.3%
- cell viability ([11]; 10000 nM): 65.6%
- cell viability ([12]; 1 nM): 100%
- cell viability ([12]; 10 nM): 93.4%
- cell viability ([12]; 100 nM): 92.1%
- cell viability ([12]; 1000 nM): 94.7%
- cell viability ([12]; 10000 nM): 75.9%
- cell viability ([5]; 1 nM): 99.4%
- cell viability ([5]; 10 nM): 103%
- cell viability ([5]; 100 nM): 106%
- cell viability ([5]; 1000 nM): 91.1%
- cell viability ([5]; 10000 nM): 71%
- cell viability ([6]; 1 nM): 101%
- cell viability ([6]; 10 nM): 103%
- cell viability ([6]; 100 nM): 96.3%
- cell viability ([6]; 1000 nM): 102%
- cell viability ([6]; 10000 nM): 67.6%
- cell viability ([13]; 1 nM): 98.5%
- cell viability ([13]; 10 nM): 98.6%
- cell viability ([13]; 100 nM): 102%
- cell viability ([13]; 1000 nM): 88.1%
- cell viability ([13]; 10000 nM): 65.8%

Compound: O=C(CCCN1CCN(c2ccccn2)CC1)c1ccc(F)cc1 [azaperone]
- drug sensitivity score [7]: 0.7
- drug sensitivity score [8]: 0
- drug sensitivity score [4]: 0
- drug sensitivity score [10]: 0.1

Compound: Cn1cccc1/C=C1\C(=O)NC(=O)c2ccccc21
- relative viability EC50 [14]: 1.84 µM
- relative viability EC50 [2]: 3.28 µM
- drug sensitivity score [7]: 6.5
- drug sensitivity score [8]: 0.9
- drug sensitivity score [3]: 1.8
- drug sensitivity score [4]: 3.7
- drug sensitivity score [10]: 2.7
- cell viability ([11]; 1 nM): 83.2%
- cell viability ([11]; 10 nM): 103%
- cell viability ([11]; 100 nM): 72.1%
- cell viability ([11]; 1000 nM): 83%
- cell viability ([11]; 10000 nM): 21.2%
- cell viability ([12]; 1 nM): 104%
- cell viability ([12]; 10 nM): 108%
- cell viability ([12]; 100 nM): 104%
- cell viability ([12]; 1000 nM): 106%
- cell viability ([12]; 10000 nM): 71.4%
- cell viability ([5]; 1 nM): 106%
- cell viability ([5]; 10 nM): 103%
- cell viability ([5]; 100 nM): 108%
- cell viability ([5]; 1000 nM): 109%
- cell viability ([5]; 10000 nM): 55.2%
- cell viability ([6]; 1 nM): 110%
- cell viability ([6]; 10 nM): 105%
- cell viability ([6]; 100 nM): 106%
- cell viability ([6]; 1000 nM): 101%
- cell viability ([6]; 10000 nM): 29.8%
- cell viability ([13]; 1 nM): 98.6%
- cell viability ([13]; 10 nM): 97.5%
- cell viability ([13]; 100 nM): 102%
- cell viability ([13]; 1000 nM): 91%
- cell viability ([13]; 10000 nM): 69%

Compound: N.N.O=C([O-])C[O-].[Pt+2] [nedaplatin]
- drug sensitivity score [7]: 0

Compound: C#C[C@]1(O)CC[C@H]2[C@@H]3CCC4=C(CCC(=O)C4)[C@H]3CC[C@@]21C [noretynodrel]
- relative viability EC50 [9]: > 10 µM
- relative viability EC50 [1]: > 10 µM
- drug sensitivity score [8]: 0
- drug sensitivity score [3]: 0
- cell viability ([12]; 1 nM): 95.2%
- cell viability ([12]; 10 nM): 99%
- cell viability ([12]; 100 nM): 93.7%
- cell viability ([12]; 1000 nM): 95.9%
- cell viability ([12]; 10000 nM): 101%
- cell viability ([5]; 1 nM): 99.5%
- cell viability ([5]; 10 nM): 105%
- cell viability ([5]; 100 nM): 104%
- cell viability ([5]; 1000 nM): 96.1%
- cell viability ([5]; 10000 nM): 99%

Compound: C#C[C@]1(O)CC[C@H]2[C@@H]3CCC4=Cc5oncc5C[C@]4(C)[C@H]3CC[C@@]21C [danazol]
- drug sensitivity score [7]: 0
- drug sensitivity score [8]: 0
- drug sensitivity score [4]: 0
- drug sensitivity score [10]: 0

Compound: CC(C)N1CCN(c2ccc(OCC3COC(Cn4cncn4)(c4ccc(Cl)cc4Cl)O3)cc2)CC1 (stereo not drawn) [terconazole]
- relative viability EC50 [9]: > 10 µM
- relative viability EC50 [2]: > 10 µM
- drug sensitivity score [7]: 3.3
- drug sensitivity score [8]: 1.9
- drug sensitivity score [3]: 0.9
- drug sensitivity score [4]: 0
- drug sensitivity score [10]: 2.6
- cell viability ([11]; 1 nM): 124%
- cell viability ([11]; 10 nM): 121%
- cell viability ([11]; 100 nM): 124%
- cell viability ([11]; 1000 nM): 89.8%
- cell viability ([11]; 10000 nM): 62.6%
- cell viability ([12]; 1 nM): 116%
- cell viability ([12]; 10 nM): 96.8%
- cell viability ([12]; 100 nM): 106%
- cell viability ([12]; 1000 nM): 90.8%
- cell viability ([12]; 10000 nM): 76.8%
- cell viability ([5]; 1 nM): 90.6%
- cell viability ([5]; 10 nM): 98.2%
- cell viability ([5]; 100 nM): 94.3%
- cell viability ([5]; 1000 nM): 108%
- cell viability ([5]; 10000 nM): 70.9%
- cell viability ([6]; 1 nM): 97.4%
- cell viability ([6]; 10 nM): 104%
- cell viability ([6]; 100 nM): 105%
- cell viability ([6]; 1000 nM): 104%
- cell viability ([6]; 10000 nM): 93.8%
- cell viability ([13]; 1 nM): 103%
- cell viability ([13]; 10 nM): 105%
- cell viability ([13]; 100 nM): 89.1%
- cell viability ([13]; 1000 nM): 97.8%
- cell viability ([13]; 10000 nM): 54.7%

Compound: CCOc1ccc2nc(S(N)(=O)=O)sc2c1 [ethoxzolamide]
- drug sensitivity score [7]: 0
- drug sensitivity score [8]: 0
- drug sensitivity score [3]: 0
- drug sensitivity score [4]: 0
- drug sensitivity score [10]: 0
- cell viability ([11]; 1 nM): 101%
- cell viability ([11]; 10 nM): 104%
- cell viability ([11]; 100 nM): 98.6%
- cell viability ([11]; 1000 nM): 125%
- cell viability ([11]; 10000 nM): 116%
- cell viability ([12]; 1 nM): 84.1%
- cell viability ([12]; 10 nM): 93.1%
- cell viability ([12]; 100 nM): 89.4%
- cell viability ([12]; 1000 nM): 96.3%
- cell viability ([12]; 10000 nM): 116%
- cell viability ([5]; 10 nM): 102%
- cell viability ([5]; 100 nM): 135%
- cell viability ([5]; 1000 nM): 98.6%
- cell viability ([5]; 10000 nM): 95.5%
- cell viability ([6]; 1 nM): 96.6%
- cell viability ([6]; 10 nM): 97.9%
- cell viability ([6]; 100 nM): 97.6%
- cell viability ([6]; 1000 nM): 99.3%
- cell viability ([6]; 10000 nM): 105%
- cell viability ([13]; 1 nM): 95.3%
- cell viability ([13]; 10 nM): 101%
- cell viability ([13]; 100 nM): 101%
- cell viability ([13]; 1000 nM): 101%
- cell viability ([13]; 10000 nM): 113%

Compound: CC(=O)c1ccc2c(c1)N(CCCN1CCC(CCO)CC1)c1ccccc1S2 [piperacetazine]
- drug sensitivity score [7]: 0.9
- drug sensitivity score [8]: 0
- drug sensitivity score [4]: 0
- drug sensitivity score [10]: 0

Source: the supplement of paper PMC13380429
